The values below come from PubChem BioAssay AID351 (ChemBlock, 2006).

Active and inactive are the calls of the source.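 How the source made its calls: active means compounds that disrupt early egg division and make hatched embryos spin fast in place instead of swimming forward; inactive means the rest.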

A short description of the assay: sea urchin embryo cleavage alteration, tubulin destabilizer project, whole organism, microscopy (AID 351). The note with it: sea urchin embryo, cleavage alteration, microscopy.
As to `CCOc1ccc(-c2cn[nH]c2N)cc1OCC`, the outcome is “inactive; up to 40 mM”.

On to `CC(=O)Nc1ccccc1-c1cc(C)c2ccccc2n1`, for which the outcome is “inactive; up to 50 µM”.

In the case of `O=C(Nc1ccc(OC(F)(F)F)cc1)C(=O)c1cn(Cc2ccc(Cl)cc2)c2ccccc12`, the outcome was “inactive; up to 1 µM”.

As for `O=C(Nc1cccc(C(F)(F)F)c1)C(=O)c1cn(Cc2ccc(Cl)cc2)c2ccccc12`, the outcome is “inactive; up to 5 mM”.

Regarding `Nc1csnc1C(=O)Nc1cccc(C(F)(F)F)c1`, the outcome is “inactive; up to 5 µM”.

With `COc1ccc2[nH]cc(CCNC(C)=O)c2c1`, the outcome was “inactive; up to 50 µM”.

Take `Nc1[nH]ncc1-c1nnc(Nc2ccc3c(c2)OCO3)o1`: the outcome is “inactive; up to 20 mM”.

On to `Cn1cnc(NCc2cccnc2)c1-c1nnc(Nc2ccc3c(c2)OCCO3)o1`, for which the outcome was “inactive; up to 2.5 µM”.

With `c1cncc(CNc2cn[nH]c2-c2nnc(Nc3ccc4c(c3)OCO4)o2)c1`, the outcome is “inactive; up to 10 µM”.

For `Nc1nc2ccccc2cc1-c1nnc(Nc2ccc3c(c2)OCO3)o1`, the outcome is “inactive; up to 2 mM”.

Take `COc1ccc2[nH]c(C)c(CCNC(=O)c3ccc(OC)c(OC)c3)c2c1`: the outcome is “inactive; up to 50 µM”.

For the compound `NC(=O)C(=O)c1cn(Cc2ccc(F)cc2)c2ccccc12`, the outcome is “inactive; up to 50 µM”.

As to `O=C(Nc1ccc(C(F)(F)F)cc1)C(=O)c1cn(Cc2ccc(Cl)cc2)c2ccccc12`, the outcome was “inactive; up to 0.5 µM”.

Regarding `Nc1cn[nH]c1-c1nc(-c2ccc(C(F)(F)F)cc2)n[nH]1`, the outcome is “inactive; up to 50 mM”.

For the compound `COc1cccc(NC(=O)C(=O)c2c[nH]c3ccccc23)c1`, the outcome was “inactive; up to 5 mM”.

On to `CCN(CC)C(=O)C(=O)c1cn(Cc2ccc(F)cc2)c2ccccc12`, for which the outcome is “inactive; up to 50 µM”.

Consider `CCOc1cc(CNc2cccc3[nH]c(C)nc23)ccc1OC`, for which the outcome is “inactive; up to 50 µM”.

As for `COc1ccc2[nH]c(C(=O)O)c(CCNC(C)=O)c2c1`, the outcome was “inactive; up to 50 µM”.

Consider `COC(=O)c1ccccc1NC(=O)Cn1nnc(-c2ccc(OC)cc2)n1`, for which the outcome is “inactive; up to 5 mM”.

Turning to `O=C(Nc1cccc(C(F)(F)F)c1)c1nscc1NCc1ccncc1`, the outcome was “inactive; up to 1 µM”.

Turning to `COc1ccc(-c2oc(=O)oc2-c2ccc(OC)c(OC)c2)cc1OC`, the outcome was “inactive; up to 5 mM”.

Consider `COc1ccc(/C=C(/C(=O)O)c2cc(OC)c(OC)c(OC)c2)cc1O`, for which the outcome was “inactive; up to 10 mM”.

For the compound `COc1ccc(Nc2nc(-c3ccc(OC)c(OC)c3)cs2)cc1`, the outcome was “inactive; up to 50 µM”.

With `Cc1nc2ccccn2c1-c1csc(Nc2ccc(Br)cc2Br)n1`, the outcome is “inactive; up to 5 mM”.

Take `O=C(C(=O)c1ccc2c(c1)OCO2)c1ccc2c(c1)OCO2`: the outcome was “inactive; up to 2 mM”.

Regarding `O=c1c(O)c(-c2ccc(O)c(O)c2)oc2cc(O)cc(O)c12`, the outcome is “inactive; up to 100 µM”.

As for `c1cc(-c2nc(-c3ccc4c(c3)OCO4)no2)ccn1`, the outcome is “inactive; up to 50 µM”.

With `O=C(Nc1ccc(F)cc1)C(=O)c1cn(Cc2ccc(Cl)cc2)c2ccccc12`, the outcome is “inactive; up to 5 mM”.

On to `COc1ccc(CNc2ccccc2-c2nn[nH]n2)cc1OC`, for which the outcome is “inactive; up to 20 mM”.

`COc1cc(N)c(C(O)c2nccc3cc(OC)c(OC)cc23)cc1OC` (centres undefined): the outcome was “inactive; up to 50 µM”.

Turning to `Cc1[nH]c2ccc(OC(F)(F)F)cc2c1CCNC(=O)Cc1ccc(Cl)cc1`, the outcome was “inactive; up to 10 µM”.

`COc1ccc(-c2nc(C)n3ccc4cc(OC)c(OC)cc4c23)cc1OC`: the outcome was “inactive; up to 10 µM”.

As for `Brc1ccc(-c2n[nH]c(-c3[nH]ncc3NCc3ccncc3)n2)cc1`, the outcome is “inactive; up to 20 mM”.

For the compound `Brc1cccc(-c2n[nH]c(-c3[nH]ncc3NCc3ccc4c(c3)OCO4)n2)c1`, the outcome is “inactive; up to 5 mM”.
